Assay [1] relates to Staphylococcus aureus. The assay is described as follows: Inhibition of biofilm formation in Staphylococcus aureus ATCC 29213 at 1.5 ug/ml after 24 hrs by MTT assay. In kind it is functional. The conditions noted are these: ATCC 29213, 24 h.
Assay [2] has as its system Staphylococcus epidermidis. In words: Inhibition of biofilm formation in Staphylococcus epidermidis DSM 3269 at 1.5 ug/ml after 24 hrs by MTT assay. Particulars: DSM 3269, 24 h. The assay is classed as functional.
For assay [3], the system named is Staphylococcus epidermidis. In words: Inhibition of biofilm formation in Staphylococcus epidermidis RP62A at 1.5 ug/ml after 24 hrs by MTT assay. In kind it is functional.
The test system of assay [4] is Staphylococcus aureus. The assay is described as follows: Inhibition of biofilm formation in Staphylococcus aureus ATCC 25923 at 1.5 ug/ml after 24 hrs by MTT assay. Particulars: ATCC 25923, 24 h. The assay is classed as functional.
The subject of assay [5] is Staphylococcus aureus. In words: Inhibition of biofilm formation in Staphylococcus aureus ATCC 702 at 1.5 ug/ml after 24 hrs by MTT assay. The assay is classed as functional. Particulars: ATCC 702, 24 h.
Assay [6] deals with Staphylococcus aureus. In words: Inhibition of biofilm formation in Staphylococcus aureus ATCC 657 at 1.5 ug/ml after 24 hrs by MTT assay. The assay is classed as functional. Particulars: ATCC 657, 24 h.
Assay [7] deals with T1, Quinolone resistance protein NorA (Staphylococcus aureus, UniProt P0A0J7).
T1 sequence (P0A0J7 whole entry): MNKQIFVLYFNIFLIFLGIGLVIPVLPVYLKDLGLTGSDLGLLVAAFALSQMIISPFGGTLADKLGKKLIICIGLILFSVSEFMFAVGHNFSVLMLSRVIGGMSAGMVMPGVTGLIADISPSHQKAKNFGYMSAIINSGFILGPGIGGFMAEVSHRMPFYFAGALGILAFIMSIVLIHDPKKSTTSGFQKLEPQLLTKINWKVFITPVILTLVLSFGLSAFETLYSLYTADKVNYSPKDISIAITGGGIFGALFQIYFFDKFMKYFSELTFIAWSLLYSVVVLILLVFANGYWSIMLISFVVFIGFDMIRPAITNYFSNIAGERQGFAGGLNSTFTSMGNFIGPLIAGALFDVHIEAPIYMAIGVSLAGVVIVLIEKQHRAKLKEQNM
In words: Inhibition of Staphylococcus aureus 1199B NorA assessed as reduction in ethidium bromide efflux by fluorescence assay.

Assay [8] concerns Staphylococcus aureus. In words: Antibacterial activity against Staphylococcus aureus ATCC 25923 after 24 hrs by broth microdilution method. The conditions noted are these: ATCC 25923, 24 h. In kind it is functional.
For assay [9], the system named is Staphylococcus aureus. In words: Antibacterial activity against Staphylococcus aureus 1199B after 24 hrs by broth microdilution method. The assay is classed as functional.
Assay [10] deals with Escherichia coli. In words: Antibacterial activity against multi drug-sensitive Escherichia coli MTCC 739 after 24 hrs by serial dilution method. In kind it is functional. The conditions noted are these: MTCC 739, 24 h.
Assay [11] has as its system Escherichia coli. In words: Antibacterial activity against multi drug-resistant Escherichia coli EM7 mutant after 24 hrs by serial dilution method. The assay is classed as functional.
The subject of assay [12] is Escherichia coli. The assay is described as follows: Antibacterial activity against multi drug-resistant Escherichia coli EM5 mutant after 24 hrs by serial dilution method. In kind it is functional.
Assay [13] deals with Escherichia coli. In words: Antibacterial activity against multi drug-resistant Escherichia coli KG1 after 24 hrs by serial dilution method. In kind it is functional. The conditions noted are these: KG1, 24 h.
Assay [14] has as its system Escherichia coli. In words: Potentiation of tetracycline induced-antimicrobial activity against Escherichia coli assessed as fold reduction in tetracycline MIC at 25 ug/ml after 24 hrs by broth checkerboard method. The assay is classed as functional.
Assay [15] concerns Escherichia coli. In words: Antibacterial activity against multi drug-resistant Escherichia coli KG4 after 24 hrs by serial dilution method. The assay is classed as functional. The conditions noted are these: KG4, 24 h.
The nature of assay [16]: Inhibition of Klebsiella pneumoniae NP6 KPC-2 expressed in Escherichia coli DH5alpha.
Assay [17] concerns Staphylococcus aureus. In words: Antibacterial activity against planktonic Staphylococcus aureus ATCC 43866 after 24 hrs by broth microdilution method. In kind it is functional. Particulars: ATCC 43866, 24 h.
Assay [18] relates to Staphylococcus epidermidis. In words: Antibacterial activity against planktonic Staphylococcus epidermidis RP62A after 24 hrs by broth microdilution method. In kind it is functional.
The test system of assay [19] is Staphylococcus aureus. In words: Antibacterial activity against planktonic Staphylococcus aureus ATCC 29213 after 24 hrs by broth microdilution method. The assay is classed as functional. The conditions noted are these: ATCC 29213, 24 h.
For assay [20], the system named is Staphylococcus aureus. The assay is described as follows: Antibiofilm activity against methicillin-resistant Staphylococcus aureus BAA-44 at 100 uM after 24 hrs by crystal violet staining based assay. The assay is classed as functional. Particulars: BAA-44, 24 h.
For assay [21], the target named is T2, Quinolone resistance protein NorA (Staphylococcus aureus) (UniProt P0A0J7).
T2 sequence (whole entry): T1 sequence (P0A0J7 whole entry)
In words: Inhibition of Staphylococcus aureus 1199B NorA assessed as potentiation of ciprofloxacin-induced antibacterial activity by measuring fold reduction in ciprofloxacin MIC at 12.5 to 25 uM.

Assay [22] can be described thus: Inhibition of bacterial IMP-1 using nitrocefin as substrate. More on the design: species or system Bacteria.
Assay [23] concerns Staphylococcus aureus. The assay is described as follows: Antibiofilm activity against methicillin-resistant Staphylococcus aureus BAA-44 after 24 hrs by crystal violet staining based assay. In kind it is functional. Particulars: BAA-44, 24 h.
For assay [24], the system named is Escherichia coli. In words: Antimicrobial activity against Escherichia coli. In kind it is functional.
The subject of another assay is Pseudomonas aeruginosa. In words: Antimicrobial activity against Pseudomonas aeruginosa. In kind it is functional.
Assay [25] can be described thus: Inhibition of Escherichia coli PBP2.
Another assay relates to Enterobacter. The assay is described as follows: Antimicrobial activity against Enterobacter. In kind it is functional.

Each structure is given as a SMILES string. Converted amounts (≈) assume the structure as drawn.

As for `O=C(c1cc(Cl)cc(Cl)c1O)c1[nH]c(Br)c(Br)c1Br`, the inhibition at 1.5 µg/mL (with Staphylococcus aureus [1]; in assay [2]; in [3]; in the assay with Staphylococcus aureus [4]; with Staphylococcus aureus [5]; with Staphylococcus aureus [6]) was 67.9 to 86.7% each time.

Consider `COC(=O)[C@H]1[C@H]2C[C@@H]3c4[nH]c5cc(OC)ccc5c4CCN3C[C@H]2C[C@@H](OC(=O)c2cc(OC)c(OC)c(OC)c2)[C@@H]1OC` [RESERPINE], for which the IC50 in assay [7] is 9 to 14 µM.

Consider `CC(C)(C)OC(=O)NCC(NC(=O)c1c[nH]c2ccccc12)c1c[nH]c2ccccc12` (configuration not stated), for which the MIC in the assay with Staphylococcus aureus [8] and in the assay with Staphylococcus aureus [9] was greater than 32 µg/mL throughout.

For `O=C1CC[C@H](O)c2ccccc21` [(-)-4-HYDROXY-ALPHA-TETRALONE], the MIC in the assay with Escherichia coli [10], against Escherichia coli [11], with Escherichia coli [12], against Escherichia coli [13] and with Escherichia coli [15] was 250 to 1000 µg/mL (≈ 1540 to 6170 µM) in each case. Further, the “fold change (FC)” value in the assay with Escherichia coli [14] is 4.

As to `CC(=O)Nc1ccc(S(=O)(=O)Nc2ccccc2NS(=O)(=O)c2ccc(NC(C)=O)cc2)cc1`, the IC50 in assay [16] came to 200 µM.

Regarding `Cc1nn(C)c([N-]C(=O)c2ccc(Cl)cc2Cl)c1[N+]#N`, the MIC (against Staphylococcus aureus [17]; in assay [18]; in the assay on Staphylococcus aureus [19]) was 1.5 to 12.5 µg/mL (≈ 4.84 to 40.3 µM) throughout.

The compound `CCCCc1ccc(/C=C(\C)Cn2cc(CCCCCc3c[nH]c(N)n3)nn2)cc1` returned an inhibition at 100 µM with Staphylococcus aureus [20] greater than 94%.

In the case of `COc1cc(CNC(=O)CCCC/C=C/C(C)C)ccc1O`, the fold change (FC) in [21] lay within 2 to 4.

For `O=C(c1cc(Cl)cc(Cl)c1O)c1[nH]c(Cl)c(Cl)c1Cl`, the inhibition at 1.5 µg/mL (with Staphylococcus aureus [1]; in [2]; in assay [3]; with Staphylococcus aureus [4]; in the assay with Staphylococcus aureus [5]; in the assay with Staphylococcus aureus [6]) was greater than 60% in each case.

Consider `O=C(O)[C@@H](Cc1ccc2c(c1)OCO2)[C@H](Cc1ccc2c(c1)OCO2)C(=O)O`, for which the IC50 in assay [22] is 2.7 to 9 nM.

`CCCCCc1ccc(/C=C(\C)Cn2cc(CCCCCc3c[nH]c(N)n3)nn2)cc1` displayed an inhibition at 100 µM in the assay with Staphylococcus aureus [20] greater than 94%.

Take `CCCCCCCCCCCCCCCC(=O)O[C@H]1CCC(=O)c2ccccc21` [4-O-PALMITOYL-ALPHATETRALONE]: the MIC in the assay with Escherichia coli [10], in the assay with Escherichia coli [11], in the assay with Escherichia coli [12], against Escherichia coli [13] and against Escherichia coli [15] was 250 to 1000 µg/mL (≈ 624 to 2500 µM) each time.

With `C[C@]1(Cn2ccnn2)[C@H](C(=O)O)N2C(=O)C[C@H]2S1(=O)=O` [TAZOBACTAM], half-maximal inhibition in assay [16] (IC50) was put at 99 µM.

Consider `C/C(=C\c1cccc2ccccc12)Cn1cc(CCCCCc2c[nH]c(N)n2)nn1`, for which, in the assay with Staphylococcus aureus [23], the IC50 was 9.86 µM. The same compound returned an inhibition at 100 µM in the assay on Staphylococcus aureus [20] greater than 94%.

With `COc1cc(C(=O)O[C@H]2CCC(=O)c3ccccc32)cc(OC)c1OC` [4-O-(3,4,5-TRIMETHOXYBENZOYL)-ALPHA-TETRALONE], the MIC against Escherichia coli [10], against Escherichia coli [11], against Escherichia coli [12], against Escherichia coli [13] and against Escherichia coli [15] was 250 to 1000 µg/mL (≈ 702 to 2810 µM) in each case. The “fold change (FC)” value in the assay with Escherichia coli [14] came to 8.

Turning to `O=C(NNC(=O)[C@@H]1CC[C@@H]2CN1C(=O)N2OS(=O)(=O)[O-])C1CNC1.[Na+]`, the MIC with Escherichia coli [24], in the assay on Pseudomonas aeruginosa and in the assay with Enterobacter was no more than 2 µg/mL in each case. Further, the IC50 in assay [25] amounted to 3.6 µM.

Values taken from ChEMBL document CHEMBL4024742, “Pharmaceutical Approaches to Target Antibiotic Resistance Mechanisms” (J Med Chem, 2017).
